One may read the IC50 as the concentration needed to halve the response being measured. Low readings indicate higher potency, high ones lower potency.

The record followed here is PubChem BioAssay AID2305 (GlaxoSmithKline (GSK), 2010).

The subject of this assay is P. falciparum 3D7 growth, pLDH absorbance. Kind of assay: blood-stage malaria parasite growth potency – strain 3D7, dose response (AID 2305).
In turn, `Cn1nc(-c2ccc(NC(=O)Nc3cc(C(F)(F)F)cc(C(F)(F)F)c3)c(F)c2)c2cnc(NCCN3CCOCC3)nc21` displayed a 50% inhibitory concentration (IC50) of 800 nM.

As to `CN(CCN)Cc1cccc(-c2cccc(-c3nc4ccc(C(F)(F)F)cc4[nH]3)c2)c1`, the IC50 amounted to 510 nM.

Regarding `C#CCN1CCC2=C(C1)c1c(O)cc(C(C)C(C)CCc3ccc(F)cc3)cc1OC2(C)C` (stereo not drawn), the IC50 stood at 180 nM.

`O=C(NCCN1CCC(c2ncc(-c3ccccc3)o2)CC1)c1ccc(NC(=O)c2ccc(Cl)cc2)cc1` had an IC50 of 240 nM.

The molecule `COc1ccc(-c2cnc(N)c(-c3ccc(O)c(OC)c3)c2)cn1` yielded an IC50 of 880 nM.

Consider `Nc1ccc(-c2ccc(NC(=O)Nc3cc(C(F)(F)F)ccc3F)cc2)cn1`, for which the IC50 is 660 nM.

`CCc1ccc(CN(CCCOc2cccc(CC(=O)NCc3cnc[nH]3)c2)Cc2ccc(-n3ccnc3)cc2)cc1` gave an IC50 of 980 nM.

The molecule `Cc1cc(N[C@@H](Cc2ccccc2)C(=O)NCc2cccs2)nc(NCCc2cccnc2)n1` came in with an IC50 of 1010 nM.

With `CC(C)COc1cc(C(=O)Nc2cnc3ccccc3c2)ccc1[N+](=O)[O-]`, the IC50 came to 780 nM.

`c1ccc(-c2ccc3c(Nc4ccc5[nH]ncc5c4)ccnc3c2)nc1` showed an IC50 of 820 nM.

In turn, `O=C(/C=C/c1ccsc1)NC1CCC(CN2CCC(c3c[nH]c4ccccc34)CC2)CC1` (stereo not drawn) yielded a half-inhibitory concentration (IC50) of 1120 nM.

`CC(Cc1ccc(OCc2ccccc2)cc1)Nc1nc2ccccc2c(=O)[nH]1` (stereo not drawn) returned an IC50 of 570 nM.

Molecule `CN(CCCc1c[nH]c2ccccc12)CC1CCN(C(=O)/C=C/c2ccc(Cl)c(Cl)c2)CC1` returned an IC50 of 750 nM.

For `CC(C)C[C@H](NC(=O)c1ccc(OCCN2CCOCC2)cc1)C(=O)N[C@H](/C=N/N(C)C(=O)c1ccccc1)CCc1ccccc1`, the IC50 stood at 270 nM.

With `CC(C)c1ccc(-c2noc(SCC(=O)N(C)c3ccc(F)cc3)n2)cc1`, the IC50 was 1170 nM.

In turn, `CCCCCc1cc(O)c2c(c1)OC(C)(C)CC2C1=CCN(Cc2cccnc2)CC1` (stereo not drawn) yielded a concentration for half-maximal inhibition (IC50) of 990 nM.

In turn, `COc1ccc2c(NN=Cc3cccc(F)c3)ccnc2c1` had an IC50 of 210 nM.

For `CC(C)(C)OC(=O)N[C@@H](CS(=O)(=O)CCN=C(N)COCc1ccccc1)C(=O)OC(C)(C)C`, the IC50 turned out to be 820 nM.

The molecule `Fc1cccc(Cn2ncc3cc(Nc4ncnc5sc(C#Cc6ncc[nH]6)cc45)ccc32)c1` registered an IC50 of 1800 nM.

On to `O=C(Cc1ccc(Cl)cc1)Nc1cc(Cl)ccc1Cn1cnc(N2CCNCC2)cc1=O`, for which the half-maximal inhibitory concentration (IC50) turned out to be 1000 nM.

`CCC[C@@H]([C@@H](CC(C)C)C(=O)N[C@@H](CCCCNC(=O)c1ccccn1)C(=O)Nc1nccs1)N(O)C=O` had an IC50 of 50 nM.

Turning to `COc1ccc(NC(=O)c2ccc(-c3nc(-c4ccccc4)cs3)cc2)cc1N1CCN(C)CC1`, the IC50 worked out at 990 nM.

In the case of `COc1ccc(C(=O)N[C@@H](CC(C)C)C(=O)NC2CC[C@@H](C)N(C(=O)Nc3ccc(Cl)cc3)CC2=O)cc1OCCN1CCOCC1` (stereo partly drawn), the half-maximal inhibitory concentration (IC50) came to 150 nM.

For the molecule `COc1cc(F)c2ncc(Cl)c(CCN3CCC(NCc4ccc5c(c4)NC(=O)CO5)CC3)c2c1`, the IC50 turned out to be 230 nM.

`CC1CCC2(CC1)N=C(N)N=C(N)N2OCc1ccc(Br)c2ccccc12` (stereo not drawn) showed an IC50 of 220 nM.

Consider `CC1(C)N=C(NC(=O)c2cc([N+](=O)[O-])cc([N+](=O)[O-])c2)N=C(N)N1OCc1cccc2ccccc12`, for which the IC50 worked out at 10 nM.

With `Cc1cc(NC(=O)Nc2ccc(C(C)(C)C)cc2)c2ccccc2n1`, the IC50 came to 720 nM.

`COc1ccc2c(NN=Cc3ccncc3)ccnc2c1` displayed an IC50 of 960 nM.

`NC(N)=NC(=O)Nc1cc(Br)c(Cl)c(C(F)(F)F)c1` came in with an IC50 of 760 nM.

For the molecule `Cc1cc(OCCCN2CCC(NS(=O)(=O)c3cccc(Br)c3)C2)c2ccccc2n1` (stereo not drawn), the IC50 came out at 1210 nM.

Consider `COc1ccc2c(-c3ccccc3)noc2c1`, for which the IC50 amounted to 240 nM.

In turn, `CC(=O)Nc1ccc(OCCCN(Cc2ccccc2OC(F)(F)F)c2ccc(C(F)(F)F)c(C#N)c2)c(Cl)c1` showed an IC50 of 810 nM.

`Cc1[nH]c(C)c(-c2ccc(Oc3ccc(C(F)(F)F)cc3)cc2)c(=O)c1Br` registered an IC50 of 210 nM.

Molecule `O=C(Nc1ccc2oc(-c3ccc(Cl)cc3Cl)nc2c1)c1ccc([N+](=O)[O-])o1` displayed an IC50 of 1100 nM.

In the case of `COc1c(Br)cc(Br)cc1-c1ccc(CN2C3CCCC2CCC3)[nH]1`, the IC50 is 1110 nM.

Consider `CC(C)CNCc1cccc(-c2ccc(CN(C(=O)NCCc3ccccc3)C3CCN(Cc4ccccc4)CC3)cc2)c1`, for which the IC50 turned out to be 760 nM.

Turning to `CCC(Cc1ccccc1)c1cc(O)c(Cc2ccc(-c3ccccc3)cc2)c(=O)o1` (stereo not drawn), the IC50 was found to be 970 nM.

`Cc1[nH]c2ccccc2c1C(=O)C(C)Sc1nnc(-c2ccccc2F)o1` (stereo not drawn) registered an IC50 of 690 nM.

For `O=C(NCCCCCN1CCC(c2c[nH]c3ccccc23)CC1)Nc1ccc(I)c(Cl)c1`, the IC50 is 970 nM.

Turning to `COc1cc2nc(NCCc3ccccc3)nc(NCCCc3ccccc3)c2cc1OC`, the IC50 is 160 nM.

As to `COc1ccc2ccc(F)c(CC(=O)N3CCOC(CNCc4cccc(-c5ccsc5)n4)C3)c2n1` (stereo not drawn), the IC50 came to 1170 nM.

`CC(C)(C)C1CCc2nc(N)nc(N)c2C1` (stereo not drawn): the IC50 is 10 nM.

In the case of `CCc1cn2c3c(cc(C(=O)N[C@@H](Cc4cc(F)cc(F)c4)[C@H](O)CNC4CC4)cc13)N(C)S(=O)(=O)CC2`, the half-maximal inhibitory concentration (IC50) turned out to be 120 nM.
